Blank lines part the entries; values can stand above or below the compound they belong to.
Tests used:
[1] = target: T1, Full length BMX (C-terminal NanoLuc fusion) (Homo sapiens, UniProt P51813); experiment: Cellular NanoBRET target engagement assay in HEK293T cells; assay type: cell-based; settings: 0.5 µM Tracer K4, 2 h incubation
T1 construct: Full length BMX and BTK was cloned into pFC32K; expressed in transfected cells; host or cells: HEK293T
T1 sequence (P51813 1-675): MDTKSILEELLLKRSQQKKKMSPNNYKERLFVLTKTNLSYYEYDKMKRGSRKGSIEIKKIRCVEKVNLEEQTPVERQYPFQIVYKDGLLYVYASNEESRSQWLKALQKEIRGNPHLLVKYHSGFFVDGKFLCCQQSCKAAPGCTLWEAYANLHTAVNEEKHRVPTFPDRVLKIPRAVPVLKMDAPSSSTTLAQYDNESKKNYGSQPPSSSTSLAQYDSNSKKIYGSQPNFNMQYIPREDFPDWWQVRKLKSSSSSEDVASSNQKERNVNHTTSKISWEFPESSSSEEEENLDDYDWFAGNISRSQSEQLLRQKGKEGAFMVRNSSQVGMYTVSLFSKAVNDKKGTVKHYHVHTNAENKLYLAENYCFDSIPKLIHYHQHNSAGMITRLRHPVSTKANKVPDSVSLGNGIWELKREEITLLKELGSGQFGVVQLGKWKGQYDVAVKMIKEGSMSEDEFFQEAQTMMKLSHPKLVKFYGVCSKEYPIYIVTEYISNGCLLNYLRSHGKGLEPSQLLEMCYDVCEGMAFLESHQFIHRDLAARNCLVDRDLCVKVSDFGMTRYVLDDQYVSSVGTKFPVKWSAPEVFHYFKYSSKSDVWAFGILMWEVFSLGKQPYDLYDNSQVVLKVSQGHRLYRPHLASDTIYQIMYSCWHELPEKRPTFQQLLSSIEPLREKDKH
Procedure: (§1) Full length BMX and BTK was cloned into pFC32K (Promega, Madison, WI, USA) for expression of a C-terminal NanoLuc fusion. The plasmids were transfected into HEK293T cells cultured in DMEM (Gibco, Waltham, MA, USA) supplemented with 10% fetal bovine serum (Gibco, Waltham, MA, USA) and Penicillin/Streptamycin (Gibco, Waltham, MA, USA). NanoBRET assays were performed using the protocol published previously. Briefly, after transfection and 20 h incubation cells were harvested and subsequently resuspended in OptiMEM (Gibco, Waltham, MA, USA). Cells were aliquoted onto […] (Greiner, Kremsmünster, Austria), and inhibitors as well as 0.5 µM Tracer K4 (Promega) for BMX or 0.5 µM Tracer K5 (Promega, Madison, WI, USA) for BTK were added using an ECHO acoustic dispenser. The plates were incubated at 37 °C with 5% CO2 for 2 h prior to the addition of both NanoBRET NanoGlo substrate (Promega, Madison, WI, USA) and extracellular NanoLuc inhibitor. BRET luminescence (450 nm for donor emission and 610 nm for BRET signal) was measured using PHERAstar FSX plate reader (BMG Labtech, Ortenberg, Germany). Milli-BRET units (mBU) were calculated as a ratio between BRET signal and the overall measured luminescence. A dose–response fitting was applied and IC50 values were calculated using the Prism software. […] Experiments were performed as tripicates and repeated at least three times.

[2] = target: T2, Full length BTK (C-terminal NanoLuc fusion) (Homo sapiens, UniProt Q06187); experiment: as above; assay type: cell-based; settings: 0.5 µM Tracer K5, 2 h incubation
T2 construct: Full length BMX and BTK was cloned into pFC32K; expressed in transfected cells; host or cells: HEK293T
T2 sequence (Q06187 whole entry, the tested form may be a part): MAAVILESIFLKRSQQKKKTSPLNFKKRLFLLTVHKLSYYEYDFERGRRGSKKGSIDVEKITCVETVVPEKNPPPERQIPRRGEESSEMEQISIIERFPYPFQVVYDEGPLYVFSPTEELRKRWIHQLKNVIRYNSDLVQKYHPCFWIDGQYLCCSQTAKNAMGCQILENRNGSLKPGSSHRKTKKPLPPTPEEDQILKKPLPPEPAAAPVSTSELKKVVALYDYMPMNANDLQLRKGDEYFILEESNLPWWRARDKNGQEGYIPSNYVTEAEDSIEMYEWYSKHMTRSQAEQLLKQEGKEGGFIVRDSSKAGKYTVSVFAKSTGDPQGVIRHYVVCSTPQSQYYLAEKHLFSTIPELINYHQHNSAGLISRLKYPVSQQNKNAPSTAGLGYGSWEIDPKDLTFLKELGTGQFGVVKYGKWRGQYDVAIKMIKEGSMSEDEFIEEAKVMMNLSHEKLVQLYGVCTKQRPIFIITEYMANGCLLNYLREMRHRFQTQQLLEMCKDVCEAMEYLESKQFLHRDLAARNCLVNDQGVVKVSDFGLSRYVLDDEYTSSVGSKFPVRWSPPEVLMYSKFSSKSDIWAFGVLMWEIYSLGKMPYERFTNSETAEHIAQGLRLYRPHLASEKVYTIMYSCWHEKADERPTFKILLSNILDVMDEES
Procedure: as §1

JAK3 = target: T3, JAK3 (Homo sapiens, UniProt P52333); experiment: Radiometric kinase assay (Reaction Biology HotSpot); assay type: biochemical; settings: for JAK3 IC50 of nonreactive analogs (not shown): in words, data not shown
T3 construct: purchased Reaction Biology Corporation
T3 sequence (P52333 1-1124): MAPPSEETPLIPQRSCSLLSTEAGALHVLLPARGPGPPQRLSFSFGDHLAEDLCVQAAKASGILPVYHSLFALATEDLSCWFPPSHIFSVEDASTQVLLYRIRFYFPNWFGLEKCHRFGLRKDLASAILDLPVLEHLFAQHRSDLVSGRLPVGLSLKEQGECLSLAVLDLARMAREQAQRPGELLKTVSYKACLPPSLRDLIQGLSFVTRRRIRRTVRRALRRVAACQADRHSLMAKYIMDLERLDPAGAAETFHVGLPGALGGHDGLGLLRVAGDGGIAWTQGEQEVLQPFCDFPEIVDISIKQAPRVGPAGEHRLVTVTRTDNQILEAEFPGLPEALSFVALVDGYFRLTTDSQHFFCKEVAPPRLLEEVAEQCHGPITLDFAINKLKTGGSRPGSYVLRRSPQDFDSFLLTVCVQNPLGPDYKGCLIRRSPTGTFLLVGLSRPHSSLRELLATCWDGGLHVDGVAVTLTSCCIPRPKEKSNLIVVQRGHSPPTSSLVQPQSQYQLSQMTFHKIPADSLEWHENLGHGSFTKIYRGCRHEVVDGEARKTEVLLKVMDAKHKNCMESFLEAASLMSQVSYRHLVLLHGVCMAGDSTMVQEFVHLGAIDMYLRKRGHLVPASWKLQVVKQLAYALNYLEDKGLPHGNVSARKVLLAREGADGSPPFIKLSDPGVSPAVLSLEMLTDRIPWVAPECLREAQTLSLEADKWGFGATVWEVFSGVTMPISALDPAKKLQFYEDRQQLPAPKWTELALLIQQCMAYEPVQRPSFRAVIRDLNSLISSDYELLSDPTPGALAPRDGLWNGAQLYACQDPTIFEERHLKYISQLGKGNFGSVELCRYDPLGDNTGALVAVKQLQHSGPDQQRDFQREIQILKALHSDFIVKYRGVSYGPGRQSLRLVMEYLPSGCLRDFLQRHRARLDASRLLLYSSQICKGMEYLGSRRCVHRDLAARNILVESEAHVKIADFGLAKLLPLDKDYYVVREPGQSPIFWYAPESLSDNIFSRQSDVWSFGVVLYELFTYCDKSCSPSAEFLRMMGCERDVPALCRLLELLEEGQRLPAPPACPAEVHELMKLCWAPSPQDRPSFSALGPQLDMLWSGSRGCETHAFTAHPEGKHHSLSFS
Procedure: (§2) If not mentioned differently, in vitro profiling of compounds was performed at Reaction Biology Corporation using the HotSpot™ assay platform.

kinase domain of BMX [3] = target: T4, kinase domain of BMX (Homo sapiens, UniProt P51813); experiment: Mass spectrometric investigation of covalent binding to BMX (ESI-TOF); settings: 4 °C; for covalent labeling of BMX (in words): 1.5-fold molar excess, complete labeling refers to 30 min
T4 construct: The kinase domains of JAK3 and BMX at 2 μM
Procedure: The kinase domain of BMX was diluted to 0.05 mM with buffer containing 20 mM Tris pH 8.0, 200 mM NaCl, 0.5 mM TCEP (pH 7.0) and was subsequently mixed with 0.075 mM inhibitors (ratio of protein to inhibitor of 1:1.5). The mixture was incubated at 4°C. The samples were taken at different time points, the reaction stopped by diluting the sample with a 200-fold excess of 1% formic acid. The denatured protein and the adducts were assessed using electrospray time-of-flight (ESI-TOF) mass spectrometry.

kinase domain of BMX [4] = target: T4, kinase domain of BMX; experiment: Thermal shift (ΔTm) assay; assay type: binding; settings: 2 μM kinase domain, 10 μM inhibitor; mean ± SD of at least three measurements
Procedure: (§3) The kinase domains of JAK3 and BMX at 2 μM were mixed with the inhibitors at 10 μM, and subsequently SyPRO orange dye (Invitrogen Carlsbad, CA, USA) was added. The thermal shift assay and data evaluation were performed as described previously using a Real-Time PCR Mx3005p machine (Stratagene, La Jolla, CA, USA).

kinase domain of JAK3 = target: T5, kinase domain of JAK3 (Homo sapiens, UniProt P52333); experiment: Thermal shift (ΔTm) assay; assay type: binding; settings: 2 μM kinase domain, 10 μM inhibitor; mean ± SD of at least three measurements
T5 construct: The kinase domains of JAK3 and BMX at 2 μM; made in house
Procedure: as §3

BMX = target: T6, BMX (Homo sapiens, UniProt P51813); experiment: Radiometric kinase assay (Reaction Biology HotSpot); assay type: biochemical; settings: radiometric HotSpot, five-dose singlicate, [ATP] = 10 μM
T6 construct: purchased Reaction Biology Corporation
T6 sequence (P51813 1-675): T1 sequence (P51813 1-675)
Procedure: as §2

[5] = 1.5-fold molar excess of inhibitor, 30 min
[6] = 1.5-fold molar excess of inhibitor, 60 min
[7] = 1.5-fold molar excess of inhibitor, 120 min
[8] = 1.5-fold molar excess of inhibitor, 240 min

JAK3 IC50 of nonreactive analogs (not shown) (JAK3): micromolar range
Compound: c1ccc(-c2c[nH]c3ncccc23)cc1 [Compound 9c, 3-phenyl-1H-pyrrolo[2,3-b]pyridine]

IC50 [1]: > 10000 nM
IC50 [2]: > 10000 nM
JAK3 IC50 of nonreactive analogs (not shown) (JAK3): micromolar range
native (unmodified) BMX fraction, 30 min (kinase domain of BMX [3]; [5]): 100%
native (unmodified) BMX fraction, 60 min (kinase domain of BMX [3]; [6]): 100%
native (unmodified) BMX fraction, 120 min (kinase domain of BMX [3]; [7]): 100%
native (unmodified) BMX fraction, 240 min (kinase domain of BMX [3]; [8]): 100%
covalent labeling of BMX (in words) (kinase domain of BMX [3]): no modification was detectable
Compound: CCC(=O)Nc1cccc(-c2c[nH]c3ncc(C(N)=O)cc23)c1 [Compound 10b, 3-(3-propionamidophenyl)-1H-pyrrolo[2,3-b]pyridine-5-carboxamide]

ΔTm at 10 µM (kinase domain of BMX [4]): 7.84 ± 0.04 °C
ΔTm at 10 µM (kinase domain of JAK3): 10.3 ± 0.37 °C
Compound: C=CC(=O)Nc1cccc(-c2c[nH]c3ncc(C(=O)NC)cc23)c1 [Compound 11c, 3-(3-acrylamidophenyl)-N-methyl-1H-pyrrolo[2,3-b]pyridine-5-carboxamide]

ΔTm at 10 µM (kinase domain of BMX [4]): 7.35 ± 0.19 °C
ΔTm at 10 µM (kinase domain of JAK3): 10.3 ± 0.26 °C
Compound: C=CC(=O)Nc1cccc(-c2c[nH]c3ncc(C(=O)NCC)cc23)c1 [Compound 11d, 3-(3-acrylamidophenyl)-N-ethyl-1H-pyrrolo[2,3-b]pyridine-5-carboxamide]

IC50 (JAK3; radiometric HotSpot, five-dose singlicate, [ATP] = 10 μM): 1080 nM
IC50 (BMX): 4 nM
ΔTm at 10 µM (kinase domain of BMX [4]): 10.75 ± 0.09 °C
ΔTm at 10 µM (kinase domain of JAK3): 9.93 ± 0.12 °C
Compound: C=CC(=O)Nc1cccc(-c2c[nH]c3ncc(NC(=O)c4ccco4)cc23)c1 [Compound 12d, N-(3-(3-acrylamidophenyl)-1H-pyrrolo[2,3-b]pyridin-5-yl)furan-2-carboxamide]

ΔTm at 10 µM (kinase domain of BMX [4]): 11.37 ± 0.03 °C
ΔTm at 10 µM (kinase domain of JAK3): 10.9 ± 0.95 °C
Compound: C=CC(=O)Nc1cccc(-c2c[nH]c3ncc(NC(=O)c4ccccc4)cc23)c1 [Compound 12e, N-(3-(3-acrylamidophenyl)-1H-pyrrolo[2,3-b]pyridin-5-yl)benzamide]

ΔTm at 10 µM (kinase domain of BMX [4]): 11.9 °C
ΔTm at 10 µM (kinase domain of JAK3): 12.1 °C
Compound: C=CC(=O)Nc1cccc(-c2c[nH]c3ncc(NC(=O)Cc4ccccc4)cc23)c1 [Compound 12h, N-(3-(5-(2-phenylacetamido)-1H-pyrrolo[2,3-b]pyridin-3-yl)phenyl)acrylamide]

More lines, now with the values behind:

Compound: CCC(=O)Nc1cccc(-c2c[nH]c3ncccc23)c1 [Compound 9b, N-(3-(1H-pyrrolo[2,3-b]pyridin-3-yl)phenyl)propionamide]
IC50 [1]: > 10000 nM
IC50 [2]: 9220 ± 3700 nM
JAK3 IC50 of nonreactive analogs (not shown) (JAK3): micromolar range
native (unmodified) BMX fraction, 30 min (kinase domain of BMX [3]; [5]): 100%
native (unmodified) BMX fraction, 60 min (kinase domain of BMX [3]; [6]): 100%
native (unmodified) BMX fraction, 120 min (kinase domain of BMX [3]; [7]): 100%
native (unmodified) BMX fraction, 240 min (kinase domain of BMX [3]; [8]): 100%
covalent labeling of BMX (in words) (kinase domain of BMX [3]): no modification was detectable

Compound: NC(=O)c1cnc2[nH]cc(-c3ccccc3)c2c1 [Compound 10c, 3-phenyl-1H-pyrrolo[2,3-b]pyridine-5-carboxamide]
JAK3 IC50 of nonreactive analogs (not shown) (JAK3): micromolar range

Compound: C=CC(=O)Nc1cccc(-c2c[nH]c3ncc(C(=O)NCC4CC4)cc23)c1 [Compound 11e, 3-(3-acrylamidophenyl)-N-(cyclopropylmethyl)-1H-pyrrolo[2,3-b]pyridine-5-carboxamide]
ΔTm at 10 µM (kinase domain of BMX [4]): 6.94 ± 0.07 °C
ΔTm at 10 µM (kinase domain of JAK3): 9.64 ± 0.28 °C

Compound: C=CC(=O)Nc1cccc(-c2c[nH]c3ncc(C(=O)NCC4CCCCC4)cc23)c1 [Compound 11f, 3-(3-acrylamidophenyl)-N-(cyclohexylmethyl)-1H-pyrrolo[2,3-b]pyridine-5-carboxamide]
ΔTm at 10 µM (kinase domain of BMX [4]): 3.68 ± 0.13 °C
ΔTm at 10 µM (kinase domain of JAK3): 5.54 ± 0.82 °C

Compound: C=CC(=O)Nc1cccc(-c2c[nH]c3ncc(C(=O)NCc4ccccc4)cc23)c1 [Compound 11g, 3-(3-acrylamidophenyl)-N-benzyl-1H-pyrrolo[2,3-b]pyridine-5-carboxamide]
ΔTm at 10 µM (kinase domain of BMX [4]): 6.84 ± 0.23 °C
ΔTm at 10 µM (kinase domain of JAK3): 8.29 ± 1.26 °C

Compound: C=CC(=O)Nc1cccc(-c2c[nH]c3ncc(NC(C)=O)cc23)c1 [Compound 12f, N-(3-(5-acetamido-1H-pyrrolo[2,3-b]pyridin-3-yl)phenyl)acrylamide]
ΔTm at 10 µM (kinase domain of BMX [4]): 10.6 ± 0.12 °C
ΔTm at 10 µM (kinase domain of JAK3): 13.4 ± 0.43 °C

Compound: C=CC(=O)Nc1cccc(-c2c[nH]c3ncc(NC(=O)Cc4cccs4)cc23)c1 [Compound 12i, N-(3-(5-(2-(thiophen-2-yl)acetamido)-1H-pyrrolo[2,3-b]pyridin-3-yl)phenyl)acrylamide]
IC50 [1]: 17 ± 7 nM
IC50 [2]: 37 ± 10 nM
IC50 (BMX): 16 nM
BMX covalent adduct fraction, 30 min (kinase domain of BMX [3]; [5]): 100%
BMX covalent adduct fraction, 60 min (kinase domain of BMX [3]; [6]): 100%
BMX covalent adduct fraction, 120 min (kinase domain of BMX [3]; [7]): 100%
BMX covalent adduct fraction, 240 min (kinase domain of BMX [3]; [8]): 100%
covalent labeling of BMX (in words) (kinase domain of BMX [3]): complete labeling
ΔTm at 10 µM (kinase domain of BMX [4]): 11.5 °C
ΔTm at 10 µM (kinase domain of JAK3): 10.1 °C

Reference: paper PMC7730235, “Discovery of a Novel Class of Covalent Dual Inhibitors Targeting the Protein Kinases BMX and BTK” (International Journal of Molecular Sciences, 2020)
